# Source: ChEMBL document CHEMBL3352705, “Anion inhibition study of the β-class carbonic anhydrase (PgiCAb) from the oral pathogen Porphyromonas gingivalis” (Bioorg Med Chem Lett, 2014)
# Target: Carbonic anhydrase 2 (Homo sapiens, UniProt P00918)
smiles,measurement,value
[F-].[Na+] [SODIUM FLUORIDE],Ki,> 200 mM
